Assay results taken from ChEMBL document CHEMBL1201862, “PubChem BioAssay data set” (2004).
Where a name gives a salt, the structure may show the parent alone. Active and inactive are the calls of the source.

Legend:
Estrogen receptor beta = Estrogen receptor beta (Homo sapiens, UniProt Q92731);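 further: recombinant ER-beta bound to coactivator SRC1 peptide in presence of estradiol agonist; inhibitors block coactivator peptide binding and lower the FRET signal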
Estrogen receptor = molecular target: T1, Estrogen receptor (Homo sapiens, UniProt P03372);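 further: potency for inhibiting coactivator peptide recruitment to the receptor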
T1 sequence (P03372 whole entry): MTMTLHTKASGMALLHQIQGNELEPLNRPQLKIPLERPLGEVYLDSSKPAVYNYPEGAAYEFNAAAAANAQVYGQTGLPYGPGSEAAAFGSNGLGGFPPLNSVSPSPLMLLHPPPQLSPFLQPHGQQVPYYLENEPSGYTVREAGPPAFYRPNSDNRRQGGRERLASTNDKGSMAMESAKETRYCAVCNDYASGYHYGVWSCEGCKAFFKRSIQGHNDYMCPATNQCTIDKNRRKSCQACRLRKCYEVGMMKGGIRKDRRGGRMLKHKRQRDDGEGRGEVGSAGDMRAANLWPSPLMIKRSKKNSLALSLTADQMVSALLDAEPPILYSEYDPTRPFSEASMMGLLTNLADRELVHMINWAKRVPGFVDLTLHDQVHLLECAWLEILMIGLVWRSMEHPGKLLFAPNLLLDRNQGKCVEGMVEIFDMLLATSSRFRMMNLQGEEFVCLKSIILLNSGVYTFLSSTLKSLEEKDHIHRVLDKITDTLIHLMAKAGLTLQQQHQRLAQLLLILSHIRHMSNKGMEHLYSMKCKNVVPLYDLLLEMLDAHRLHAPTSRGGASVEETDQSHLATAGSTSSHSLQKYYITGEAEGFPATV

[1] = test system: Streptococcus sp. 'group A'; experiment: growth inhibition of control SK(-) GAS strain, dose response, counter-screen for streptokinase expression inhibitor project, luminescence, kanamycin, BacTiterGlo, confirmation (AID 1900); format: functional, organism-based
[2] = HepG2 cell cytotoxicity, dose response, cytotoxicity control for non-replicating M. tuberculosis project (AID 489018); format: functional; conditions: Mycobacterium tuberculosis
Streptococcus = experiment: Group A Streptococcus viability loss, dose response, counter-screen for streptokinase expression inhibitor project, luminescence, BacTiterGlo (AID 1915); format: functional, organism-based;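 further: potency for reduction of bacterial viability or growth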
[3] = THP-1 cell cytotoxicity, dose response, cytotoxicity control for non-replicating M. tuberculosis project (AID 489025); format: functional
Aminopeptidase N = molecular target: T2, Aminopeptidase N (Plasmodium falciparum FcB1/Columbia, UniProt O96935); experiment: P. falciparum M1AAP inhibitors, biochemical, fluorogenic H-Leu-NHMec substrate, 1536-well (AID 1445); set-up: species or system Plasmodium falciparum 3D7, 3D7
T2 sequence (O96935 whole entry): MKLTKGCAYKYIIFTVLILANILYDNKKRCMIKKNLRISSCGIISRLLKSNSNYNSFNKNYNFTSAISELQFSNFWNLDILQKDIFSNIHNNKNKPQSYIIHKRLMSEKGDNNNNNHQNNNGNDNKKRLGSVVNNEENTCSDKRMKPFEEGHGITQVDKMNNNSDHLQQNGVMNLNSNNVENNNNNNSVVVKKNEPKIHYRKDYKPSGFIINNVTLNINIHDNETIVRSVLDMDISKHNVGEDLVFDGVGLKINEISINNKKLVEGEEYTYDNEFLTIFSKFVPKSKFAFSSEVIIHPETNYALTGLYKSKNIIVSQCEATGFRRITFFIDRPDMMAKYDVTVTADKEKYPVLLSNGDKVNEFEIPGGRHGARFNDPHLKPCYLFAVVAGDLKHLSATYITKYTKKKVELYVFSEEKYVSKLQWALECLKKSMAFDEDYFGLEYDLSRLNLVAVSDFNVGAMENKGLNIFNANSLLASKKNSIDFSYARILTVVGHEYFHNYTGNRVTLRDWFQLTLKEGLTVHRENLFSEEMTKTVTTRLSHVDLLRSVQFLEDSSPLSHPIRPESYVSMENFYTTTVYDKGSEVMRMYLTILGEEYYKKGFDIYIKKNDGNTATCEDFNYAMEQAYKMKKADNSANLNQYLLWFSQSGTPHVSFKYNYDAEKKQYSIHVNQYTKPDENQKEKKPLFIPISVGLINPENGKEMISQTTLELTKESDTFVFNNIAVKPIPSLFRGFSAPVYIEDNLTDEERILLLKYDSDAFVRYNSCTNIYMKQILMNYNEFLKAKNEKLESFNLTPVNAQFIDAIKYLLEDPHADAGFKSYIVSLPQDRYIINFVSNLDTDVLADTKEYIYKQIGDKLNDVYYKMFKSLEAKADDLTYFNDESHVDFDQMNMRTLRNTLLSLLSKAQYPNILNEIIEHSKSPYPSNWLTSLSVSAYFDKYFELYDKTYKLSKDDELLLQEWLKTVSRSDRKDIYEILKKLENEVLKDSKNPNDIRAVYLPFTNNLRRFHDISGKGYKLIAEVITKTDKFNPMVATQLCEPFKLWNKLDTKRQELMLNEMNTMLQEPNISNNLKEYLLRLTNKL

[4] = Vero E6 cell cytotoxicity, dose response, cytotoxicity control for non-replicating M. tuberculosis project, secondary assay (AID 492998); format: functional, VeroE6; conditions: Vero C1008
Streptokinase A = molecular target: T3, Streptokinase A (Streptococcus pyogenes serotype M1, UniProt P10520); experiment: S. pyogenes streptokinase expression inhibitors, potency, dose response, plasminogen activation absorbance, OD405 (AID 1914); format: functional, Streptococcus pyogenes M1 GAS;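 further: secreted streptokinase activity via plasminogen activation per viability signal from cell pellet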
T3 sequence (P10520 whole entry): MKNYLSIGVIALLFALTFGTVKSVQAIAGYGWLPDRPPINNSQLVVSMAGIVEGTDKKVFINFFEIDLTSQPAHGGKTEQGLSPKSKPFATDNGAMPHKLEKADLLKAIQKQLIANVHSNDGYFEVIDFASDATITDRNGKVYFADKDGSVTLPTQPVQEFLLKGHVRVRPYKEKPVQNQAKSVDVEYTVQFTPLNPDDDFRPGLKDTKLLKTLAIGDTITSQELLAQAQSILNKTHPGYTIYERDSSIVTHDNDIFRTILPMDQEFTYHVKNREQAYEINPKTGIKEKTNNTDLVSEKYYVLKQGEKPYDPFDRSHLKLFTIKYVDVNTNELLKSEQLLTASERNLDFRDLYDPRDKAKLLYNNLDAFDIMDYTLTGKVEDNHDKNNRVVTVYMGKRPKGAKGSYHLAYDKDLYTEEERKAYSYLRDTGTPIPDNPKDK

Prothrombin = Prothrombin (Homo sapiens, UniProt P00734); experiment: Thrombin 1536 HTS Dose Response Confirmation. [Related pubchem assays: 1046 (Thrombin 1536 HTS; hits were confirmed in this assay)]; format: functional
[5] = molecular target: T4, Heat shock factor protein 1 (Mus musculus, UniProt P38532); experiment: inhibition of MG132-induced HSE-luciferase signal, confirmation, cell-based, NIH3T3, luminescence, dose retest (AID 2382); format: functional;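 further: NIH3T3 fibroblasts with HSF1-driven luciferase reporter stressed by proteasome inhibitor MG132; luminescence from HSF1-driven luciferase expression after 8 hours of MG132 stress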
T4 sequence (P38532 whole entry): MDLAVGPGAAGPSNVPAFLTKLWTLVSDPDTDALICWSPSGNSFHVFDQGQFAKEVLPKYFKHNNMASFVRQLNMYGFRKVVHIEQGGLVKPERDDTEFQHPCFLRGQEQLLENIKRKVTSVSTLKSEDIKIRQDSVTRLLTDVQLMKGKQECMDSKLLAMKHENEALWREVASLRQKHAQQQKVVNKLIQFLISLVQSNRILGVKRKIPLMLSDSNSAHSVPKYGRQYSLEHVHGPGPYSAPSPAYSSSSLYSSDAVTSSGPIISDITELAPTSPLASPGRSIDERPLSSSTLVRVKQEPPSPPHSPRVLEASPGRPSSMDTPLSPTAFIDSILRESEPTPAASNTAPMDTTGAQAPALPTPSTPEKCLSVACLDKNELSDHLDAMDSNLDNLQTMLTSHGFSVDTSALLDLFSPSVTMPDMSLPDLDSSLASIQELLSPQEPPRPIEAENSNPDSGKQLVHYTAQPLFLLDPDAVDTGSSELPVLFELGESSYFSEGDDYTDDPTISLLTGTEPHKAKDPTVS

[6] = HCT116 cell viability decrease, GSK3B pretreatment – CellTiter-Glo, IC50, dose response (AID 1117339); format: functional; conditions: HCT-116
[7] = cytotoxicity toward HCT116 cells – cell-based, CellTiter-Glo luminescence, IC50, dose response (AID 1117332); format: functional; conditions: HCT-116
[8] = SNU-C1 cell viability reduction, dose response, CellTiter-Glo luminescence (AID 1117323); format: functional, cell-based
[9] = CellTiter-Glo luminescent dose response of DLD-1 viability loss (AID 1117352); format: functional
[10] = cytotoxicity toward Colo320 cells – cell-based, CellTiter-Glo luminescence, IC50, dose response (AID 1117334); format: functional; conditions: COLO 320
Cytochrome P450 1A2 = molecular target: T5, Cytochrome P450 1A2 (Homo sapiens, UniProt P05177);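 further: PubChem cytochrome P450 panel assay, CYP1A2 panel member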
T5 sequence (P05177 whole entry): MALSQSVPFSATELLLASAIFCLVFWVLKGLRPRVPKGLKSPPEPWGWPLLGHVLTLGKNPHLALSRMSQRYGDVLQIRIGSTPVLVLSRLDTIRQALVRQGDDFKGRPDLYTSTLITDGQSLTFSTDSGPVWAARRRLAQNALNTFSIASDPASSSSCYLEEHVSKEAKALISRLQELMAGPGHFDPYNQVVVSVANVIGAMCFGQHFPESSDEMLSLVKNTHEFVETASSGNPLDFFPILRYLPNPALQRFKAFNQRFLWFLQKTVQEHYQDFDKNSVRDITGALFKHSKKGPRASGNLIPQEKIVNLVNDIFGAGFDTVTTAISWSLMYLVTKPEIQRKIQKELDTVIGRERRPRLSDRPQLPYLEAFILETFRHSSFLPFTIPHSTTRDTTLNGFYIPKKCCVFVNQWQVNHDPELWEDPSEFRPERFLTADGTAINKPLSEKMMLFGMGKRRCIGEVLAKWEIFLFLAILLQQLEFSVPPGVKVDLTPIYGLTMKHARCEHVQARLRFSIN

[11] = cytotoxicity toward HT-29 cells – cell-based, CellTiter-Glo luminescence, IC50, dose response (AID 1117330); format: functional
[12] = RKO cell viability reduction, dose response, CellTiter-Glo luminescence (AID 1117322); format: functional
Cytochrome P450 2D6 = Cytochrome P450 2D6 (Homo sapiens, UniProt P10635);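 further: CYP2D6 member of a cytochrome P450 panel assay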
Cytochrome P450 2D6, sequence (P10635 whole entry): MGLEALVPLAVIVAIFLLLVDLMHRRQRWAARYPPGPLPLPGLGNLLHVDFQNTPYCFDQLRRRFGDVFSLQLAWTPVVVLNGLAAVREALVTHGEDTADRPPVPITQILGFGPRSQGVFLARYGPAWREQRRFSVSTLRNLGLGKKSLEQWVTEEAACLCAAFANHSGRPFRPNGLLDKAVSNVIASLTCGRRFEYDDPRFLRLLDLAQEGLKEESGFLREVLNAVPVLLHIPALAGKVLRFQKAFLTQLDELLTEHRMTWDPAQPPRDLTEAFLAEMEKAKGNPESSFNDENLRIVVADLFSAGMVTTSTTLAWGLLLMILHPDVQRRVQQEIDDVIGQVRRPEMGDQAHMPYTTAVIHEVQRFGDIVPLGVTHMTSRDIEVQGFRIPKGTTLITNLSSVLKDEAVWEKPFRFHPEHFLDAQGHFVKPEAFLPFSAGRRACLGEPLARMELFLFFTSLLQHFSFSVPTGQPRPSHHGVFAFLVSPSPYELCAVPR

[13] = Concentration-dependent survival of SW480 colon cancer line, luminescence detection with CellTiter-Glo, half-maximal inhibitory concentration (AID 1117338); format: functional

Estrogen receptor beta, sequence (Q92731 whole entry): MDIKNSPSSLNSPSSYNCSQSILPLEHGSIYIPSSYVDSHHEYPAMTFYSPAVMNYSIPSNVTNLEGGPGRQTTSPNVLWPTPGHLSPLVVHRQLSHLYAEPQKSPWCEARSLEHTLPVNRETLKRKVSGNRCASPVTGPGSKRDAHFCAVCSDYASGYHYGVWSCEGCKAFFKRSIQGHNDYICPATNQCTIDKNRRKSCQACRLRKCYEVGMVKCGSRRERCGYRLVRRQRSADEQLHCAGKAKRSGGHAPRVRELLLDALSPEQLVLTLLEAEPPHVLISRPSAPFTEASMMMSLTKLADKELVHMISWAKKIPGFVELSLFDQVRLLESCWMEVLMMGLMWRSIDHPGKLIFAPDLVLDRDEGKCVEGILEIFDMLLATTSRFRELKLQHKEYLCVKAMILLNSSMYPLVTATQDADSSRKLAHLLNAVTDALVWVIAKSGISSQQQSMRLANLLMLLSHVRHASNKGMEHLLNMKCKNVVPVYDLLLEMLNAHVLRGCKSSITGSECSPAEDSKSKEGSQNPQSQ

Structure (SMILES): Cc1nn(Cc2ccccc2Cl)c(C)c1C(=O)NCc1ccco1
- IC50 (Estrogen receptor beta): > 50 µM (not active)

Structure (SMILES): C=CCn1c(SCC(=O)NC2CCCCC2)nnc1C(C)NC(=O)c1cccs1 (stereo not drawn)
- IC50 (Estrogen receptor): > 50 µM (not active)

Structure (SMILES): C/C(=N\NC(=O)c1ccccc1O)C1C(=O)c2ccccc2C1=O
- EC50 [1]: 3.62 µM (active)
- CC50 [2]: > 20 µM (active)
- EC50 (Streptococcus): 41 µM (active)
- CC50 [3]: 10.5 µM (active)
- IC50 (Aminopeptidase N): 12.8 µM (active)
- CC50 [4]: 4.99 µM (active)
- EC50 (Streptokinase A): > 150 µM (not active)

Structure (SMILES): Cc1occc1C(=O)Nc1cc(C(F)(F)F)ccc1Cl
- IC50 (Prothrombin): > 50 µM (not active)
- EC50 [5]: > 195 µM (not active)

Structure (SMILES): Nc1nc(-c2cccnc2)nn1C(=O)c1ccccc1Cl
- IC50 (Prothrombin): 0.0831 µM (active)

Structure (SMILES): CN1CCN(CCCN2c3ccccc3Sc3ccc(S(=O)(=O)N(C)C)cc32)CC1 [THIOPROPERAZINE MESYLATE]
- IC50 [6]: > 20 µM (inactive)
- IC50 [7]: > 20 µM (inactive)
- IC50 [8]: 2.12 µM (active)
- IC50 [9]: 14.6 µM (inactive)
- IC50 [10]: 8.17 µM (inactive)
- AC50 (Cytochrome P450 1A2): 12.6 µM (inconclusive)
- IC50 [11]: > 20 µM (inactive)
- IC50 [12]: 5.99 µM (inactive)
- AC50 (Cytochrome P450 2D6): 6.31 µM (inconclusive)
- IC50 [13]: > 20 µM (inactive)

Structure (SMILES): O=c1[nH]c(SCc2ccccc2Cl)nc2n[nH]cc12
- IC50 (Aminopeptidase N): 9.3 µM (active)
